# Data from the supplement of paper PMC10307832.
# Legend:
# Experiment in all cases: relative viability (nuclei count vs DMSO), 5 days (fraction); higher = more cells survive
# NCI-H358 = system: NCI-H358
# In short: (§1)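 Lung cancer cell lines in 1536-well plates got either a single drug or a fixed anchor-drug dose together with five library-drug doses (not always all listed) in √10 steps, by pin tool, on the day after seeding. Nuclei were counted after 5 days, and relative viability is the treated-to-vehicle ratio of nuclei counts. Values are medians of duplicate plates.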
# NCI-H1975 = system: NCI-H1975
# In short: as §1
# H3255 = system: H3255
# In short: as §1
# ABC-1 = system: ABC-1
# In short: as §1
# NCI-H727 = system: NCI-H727
# In short: as §1
# NCI-H1437 = system: NCI-H1437
# In short: as §1
# EKVX = system: EKVX
# In short: as §1
# COR-L 105 = system: COR-L 105
# In short: as §1
# NCI-H1792 = system: NCI-H1792
# In short: as §1
# LCLC-103H = system: LCLC-103H
# In short: as §1
# NCI-H1651 = system: NCI-H1651
# In short: as §1
# EPLC-272H = system: EPLC-272H
# In short: as §1
# NCI-H661 = system: NCI-H661
# In short: as §1
# HCC-15 = system: HCC-15
# In short: as §1
# COR-L23 = system: COR-L23
# In short: as §1
# HCC-827 = system: HCC-827
# In short: as §1
# NCI-H1650 = system: NCI-H1650
# In short: as §1
# NCI-H647 = system: NCI-H647
# In short: as §1
# UMC-11 = system: UMC-11
# In short: as §1
# NCI-H2087 = system: NCI-H2087
# In short: as §1
# 201T = system: 201T
# In short: as §1
# NCI-H520 = system: NCI-H520
# In short: as §1
compound,measurement,setting,value
O=C(O)CCCCC(CCSCc1ccccc1)SCc1ccccc1 (stereo unspecified) [CPI-613] + Cc1nc(Nc2ncc(C(=O)Nc3c(C)cccc3Cl)s2)cc(N2CCN(CCO)CC2)n1 [Dasatinib] (partner 0.075 µM),relative viability,NCI-H358; first compound 15.81 µM,0.145
same,relative viability,NCI-H358; first compound 50 µM,0.146
same,relative viability,NCI-H358; first compound 158.11 µM,0.157
same,relative viability,NCI-H358; first compound 500 µM,0.0248
same,relative viability,NCI-H1975; first compound 5 µM,0.377
same,relative viability,NCI-H1975; first compound 15.81 µM,0.331
same,relative viability,NCI-H1975; first compound 50 µM,0.347
same,relative viability,NCI-H1975; first compound 158.11 µM,0.176
same,relative viability,NCI-H1975; first compound 500 µM,0.111
same,relative viability,H3255; first compound 5 µM,0.408
same,relative viability,H3255; first compound 15.81 µM,0.307
same,relative viability,H3255; first compound 50 µM,0.346
same,relative viability,H3255; first compound 500 µM,0.335
same,relative viability,ABC-1; first compound 5 µM,0.561
same,relative viability,ABC-1; first compound 50 µM,0.527
same,relative viability,ABC-1; first compound 158.11 µM,0.232
same,relative viability,ABC-1; first compound 500 µM,0.196
same,relative viability,NCI-H727; first compound 5 µM,0.305
same,relative viability,NCI-H727; first compound 15.81 µM,0.35
same,relative viability,NCI-H727; first compound 50 µM,0.329
same,relative viability,NCI-H727; first compound 158.11 µM,0.275
same,relative viability,NCI-H727; first compound 500 µM,0.138
same,relative viability,NCI-H1437; first compound 5 µM,0.388
same,relative viability,NCI-H1437; first compound 15.81 µM,0.314
same,relative viability,NCI-H1437; first compound 50 µM,0.381
same,relative viability,NCI-H1437; first compound 500 µM,0.304
same,relative viability,EKVX; first compound 5 µM,0.561
same,relative viability,EKVX; first compound 15.81 µM,0.482
same,relative viability,EKVX; first compound 50 µM,0.565
same,relative viability,EKVX; first compound 158.11 µM,0.466
same,relative viability,EKVX; first compound 500 µM,0.517
same,relative viability,COR-L 105; first compound 5 µM,0.386
same,relative viability,COR-L 105; first compound 15.81 µM,0.285
same,relative viability,COR-L 105; first compound 50 µM,0.307
same,relative viability,COR-L 105; first compound 158.11 µM,0.278
same,relative viability,COR-L 105; first compound 500 µM,0.131
same,relative viability,NCI-H1792; first compound 5 µM,0.772
same,relative viability,NCI-H1792; first compound 15.81 µM,0.748
same,relative viability,NCI-H1792; first compound 50 µM,0.789
same,relative viability,NCI-H1792; first compound 158.11 µM,0.669
same,relative viability,NCI-H1792; first compound 500 µM,0.766
same,relative viability,LCLC-103H; first compound 5 µM,0.463
same,relative viability,LCLC-103H; first compound 15.81 µM,0.472
same,relative viability,LCLC-103H; first compound 50 µM,0.41
same,relative viability,LCLC-103H; first compound 158.11 µM,0.422
same,relative viability,LCLC-103H; first compound 500 µM,0.271
same,relative viability,NCI-H1651; first compound 5 µM,0.348
same,relative viability,NCI-H1651; first compound 15.81 µM,0.387
same,relative viability,NCI-H1651; first compound 50 µM,0.416
same,relative viability,NCI-H1651; first compound 158.11 µM,0.282
same,relative viability,NCI-H1651; first compound 500 µM,0.123
same,relative viability,EPLC-272H; first compound 5 µM,0.317
same,relative viability,EPLC-272H; first compound 15.81 µM,0.334
same,relative viability,EPLC-272H; first compound 50 µM,0.449
same,relative viability,EPLC-272H; first compound 158.11 µM,0.219
same,relative viability,EPLC-272H; first compound 500 µM,0.0109
same,relative viability,NCI-H661; first compound 5 µM,0.863
same,relative viability,NCI-H661; first compound 15.81 µM,0.83
same,relative viability,NCI-H661; first compound 50 µM,0.798
same,relative viability,NCI-H661; first compound 158.11 µM,0.312
same,relative viability,NCI-H661; first compound 500 µM,0.155
same,relative viability,HCC-15; first compound 5 µM,0.56
same,relative viability,HCC-15; first compound 15.81 µM,0.529
same,relative viability,HCC-15; first compound 50 µM,0.552
same,relative viability,HCC-15; first compound 158.11 µM,0.308
same,relative viability,HCC-15; first compound 500 µM,0.0395
same,relative viability,COR-L23; first compound 5 µM,0.568
same,relative viability,COR-L23; first compound 15.81 µM,0.493
same,relative viability,COR-L23; first compound 50 µM,0.485
same,relative viability,COR-L23; first compound 158.11 µM,0.334
same,relative viability,COR-L23; first compound 500 µM,0.0383
same,relative viability,HCC-827; first compound 5 µM,0.262
same,relative viability,HCC-827; first compound 15.81 µM,0.295
same,relative viability,HCC-827; first compound 50 µM,0.405
same,relative viability,HCC-827; first compound 158.11 µM,0.315
same,relative viability,HCC-827; first compound 500 µM,0.353
same,relative viability,NCI-H1650; first compound 5 µM,0.353
same,relative viability,NCI-H1650; first compound 15.81 µM,0.285
same,relative viability,NCI-H1650; first compound 50 µM,0.312
same,relative viability,NCI-H1650; first compound 158.11 µM,0.082
same,relative viability,NCI-H1650; first compound 500 µM,0.0164
same,relative viability,NCI-H647; first compound 5 µM,0.197
same,relative viability,NCI-H647; first compound 15.81 µM,0.144
same,relative viability,NCI-H647; first compound 50 µM,0.146
same,relative viability,NCI-H647; first compound 158.11 µM,0.0387
same,relative viability,NCI-H647; first compound 500 µM,0.0112
same,relative viability,UMC-11; first compound 5 µM,0.444
same,relative viability,UMC-11; first compound 15.81 µM,0.417
same,relative viability,UMC-11; first compound 50 µM,0.482
same,relative viability,UMC-11; first compound 158.11 µM,0.144
same,relative viability,UMC-11; first compound 500 µM,0.0883
same,relative viability,NCI-H2087; first compound 5 µM,0.809
same,relative viability,NCI-H2087; first compound 15.81 µM,0.886
same,relative viability,NCI-H2087; first compound 50 µM,0.792
same,relative viability,NCI-H2087; first compound 158.11 µM,0.196
same,relative viability,NCI-H2087; first compound 500 µM,0.023
same,relative viability,201T; first compound 5 µM,0.553
same,relative viability,201T; first compound 15.81 µM,0.527
same,relative viability,201T; first compound 50 µM,0.488
same,relative viability,201T; first compound 158.11 µM,0.352
same,relative viability,201T; first compound 500 µM,0.303
same,relative viability,NCI-H520; first compound 5 µM,0.188
same,relative viability,NCI-H520; first compound 15.81 µM,0.17
same,relative viability,NCI-H520; first compound 50 µM,0.202
same,relative viability,NCI-H520; first compound 158.11 µM,0.168
same,relative viability,NCI-H520; first compound 500 µM,0.149
